According to patent US10421740B2, “Pesticidally active heterocyclic derivatives with sulphur containing substituents” (SYNGENTA PARTICIPATIONS AG, priority 2016, dated 2019):

Tests used:
[1] = system: Myzus persicae (Green Peach Aphid); test: Activity against Myzus persicae (green peach aphid): systemic activity; type: in vivo; conditions: 144 h, test rate 24 ppm, roots of pea seedlings in test solution, 6 days
Procedure: Example B4: Activity Against Myzus persicae (Green Peach Aphid): Systemic Activity
Roots of pea seedlings infested with an aphid population of mixed ages were placed directly into aqueous test solutions prepared from 10'000 DMSO stock solutions. The samples were assessed for mortality 6 days after placing seedlings into test solutions.

[2] = system: Plutella xylostella (Diamond Back Moth); test: Activity against Plutella xylostella (diamond back moth); type: in vivo; conditions: 120 h, application rate 200 ppm, artificial diet, L2 larvae, 5 days after infestation, read-out: effect in at least one of the two categories (mortality or growth inhibition)
Procedure: Example B5: Activity Against Plutella xylostella (Diamond Back Moth)
(§1) 24-well microtiter plates with artificial diet were treated with aqueous test solutions prepared from 10'000 ppm DMSO stock solutions by pipetting. After drying, the plates were infested with L2 larvae (10 to 15 per well). The samples were assessed for mortality and growth inhibition in comparison to untreated samples 5 days after infestation.

[3] = system: Myzus persicae (Green Peach Aphid); test: Activity against Myzus persicae (green peach aphid): feeding/contact activity; type: in vivo; conditions: foliar, 144 h, application rate 200 ppm, sunflower leaf discs, aphid population of mixed ages, 6 days after infestation
Procedure: Example B3: Activity Against Myzus persicae (Green Peach Aphid): Feeding/Contact Activity
Sunflower leaf discs were placed onto agar in a 24-well microtiter plate and sprayed with aqueous test solutions prepared from 10'000 ppm DMSO stock solutions. After drying, the leaf discs were infested with an aphid population of mixed ages. The samples were assessed for mortality 6 days after infestation.

[4] = system: Euschistus heros (Neotropical Brown Stink Bug); test: Activity against Euschistus heros (neotropical brown stink bug); type: in vivo; conditions: 120 h, application rate 200 ppm, soybean leaves, N2 nymphs, 5 days after infestation, read-out: effect in at least one of the two categories (mortality or growth inhibition)
Procedure: Example B9: Activity Against Euschistus heros (Neotropical Brown Stink Bug)
Soybean leaves on agar in 24-well microtiter plates were sprayed with aqueous test solutions prepared from 10'000 ppm DMSO stock solutions. After drying the leaves were infested with N2 nymphs. The samples were assessed for mortality and growth inhibition in comparison to untreated samples 5 days after infestation.

[5] = system: Spodoptera littoralis (Egyptian Cotton Leaf Worm); test: Activity against Spodoptera littoralis (Egyptian cotton leaf worm), cotton leaf disc spray; type: in vivo; conditions: foliar, 72 h, application rate 200 ppm, cotton leaf discs, L1 larvae, 3 days after infestation
Procedure: Example B8: Activity Against Spodoptera littoralis (Egyptian Cotton Leaf Worm)
Cotton leaf discs were placed onto agar in 24-well microtiter plates and sprayed with aqueous test solutions prepared from 10'000 ppm DMSO stock solutions. After drying the leaf discs were infested with five L1 larvae. The samples were assessed for mortality, anti-feeding effect, and growth inhibition in comparison to untreated samples 3 days after infestation. Control of Spodoptera littoralis by a test sample is given when at least one of the categories mortality, anti-feedant effect, and growth inhibition is higher than the untreated sample.

[6] = system: Diabrotica balteata (Corn Root Worm); test: Activity against Diabrotica balteata (corn root worm); type: in vivo; conditions: 96 h, application rate 200 ppm, maize sprouts, L2 larvae, 4 days after infestation, read-out: effect in at least one of the two categories (mortality or growth inhibition)
Procedure: Example B2: Activity Against Diabrotica balteata (Corn Root Worm)
as §1, with “Maize sprouts placed onto an agar layer in 24-well” for “24-well”, “plates” for “plates with artificial diet”, “spraying.” for “pipetting.”, “(6” for “(10”, “10” for “15”, “4” for “5”

[7] = system: Bemisia tabaci (Cotton White Fly); test: Activity against Bemisia tabaci (cotton white fly): feeding/contact activity; type: in vivo; conditions: foliar, 144 h, application rate 200 ppm, cotton leaf discs, adult white flies, 6 days after incubation
Procedure: Example B1: Activity Against Bemisia tabaci (Cotton White Fly): Feeding/Contact Activity
Cotton leaf discs were placed on agar in 24-well microtiter plates and sprayed with aqueous test solutions prepared from 10'000 ppm DMSO stock solutions. After drying the leaf discs were infested with adult white flies. The samples were checked for mortality 6 days after incubation.

melting point	SMILES	mortality at 24 ppm [1]	percent control (mortality or growth inhibition) at 200 ppm [2]	mortality at 200 ppm [3]	effect (mortality or growth inhibition) at 200 ppm [4]	percent control (mortality, anti-feedant effect or growth inhibition) at 200 ppm [5]	percent effect (mortality or growth inhibition) at 200 ppm [6]	mortality at 200 ppm [7]
	CCn1nnc2nc(-c3nnc(-c4cc(C(F)(F)F)ccn4)n3C)c(S(=O)(=O)CC)cc21 [Compound A13, 1-ethyl-6-ethylsulfonyl-5-[4-methyl-5-[4-(trifluoromethyl)-2-pyridyl]-1,2,4-triazol-3-yl]triazolo[4,5-b]pyridine]	≥ 80%	≥ 80%	≥ 80%	≥ 80%			
	CCS(=O)(=O)c1cc2c(nc1-c1nnc(-c3cc(C(F)(F)F)ncn3)n1C)CC(C)(C)O2 [Compound A20, 6-ethylsulfonyl-2,2-dimethyl-5-[4-methyl-5-[6-(trifluoromethyl)pyrimidin-4-yl]-1,2,4-triazol-3-yl]-3H-furo[3,2-b]pyridine]	≥ 80%			≥ 80%	≥ 80%	≥ 80%	
	CCSc1cc2sc(C(F)(F)F)nc2cc1-c1nnc(-c2cc(C(F)(F)F)ccn2)n1C [Compound A7, 6-ethylsulfanyl-5-[4-methyl-5-[4-(trifluoromethyl)-2-pyridyl]-1,2,4-triazol-3-yl]-2-(trifluoromethyl)-1,3-benzothiazole]					≥ 80%	≥ 80%	
	CCS(=O)(=O)c1cc2nc(C(F)(F)F)sc2cc1-c1nnc(-c2cc(C(F)(F)F)ccn2)n1C [Compound A6, 5-ethylsulfonyl-6-[4-methyl-5-[4-(trifluoromethyl)-2-pyridyl]-1,2,4-triazol-3-yl]-2-(trifluoromethyl)-1,3-benzothiazole]		≥ 80%			≥ 80%	≥ 80%	≥ 80%
	CCS(=O)(=O)c1cc2c(nnn2C)nc1-c1nnc(-c2cc(C(F)(F)F)ccn2)n1C [Compound A9, 6-ethylsulfonyl-1-methyl-5-[4-methyl-5-[4-(trifluoromethyl)-2-pyridyl]-1,2,4-triazol-3-yl]triazolo[4,5-b]pyridine]		≥ 80%	≥ 80%	≥ 80%	≥ 80%	≥ 80%	≥ 80%
	CCS(=O)(=O)c1cc2nnn(CCF)c2nc1-c1nnc(-c2cc(C(F)(F)F)ccn2)n1C [Compound A15, 6-ethylsulfonyl-3-(2-fluoroethyl)-5-[4-methyl-5-[4-(trifluoromethyl)-2-pyridyl]-1,2,4-triazol-3-yl]triazolo[4,5-b]pyridine]	≥ 80%						
	CCS(=O)(=O)c1cc2nn(C)nc2nc1-c1nnc(-c2cc(C(F)(F)F)ccn2)n1C [Compound A18, 6-ethylsulfonyl-2-methyl-5-[4-methyl-5-[4-(trifluoromethyl)-2-pyridyl]-1,2,4-triazol-3-yl]triazolo[4,5-b]pyridine]	≥ 80%		≥ 80%	≥ 80%			
176 to 178 °C	CCS(=O)(=O)c1cc2c(nnn2COC)nc1-c1nnc(-c2cc(C(F)(F)F)ccn2)n1C [Compound A11, 6-ethylsulfonyl-1-(methoxymethyl)-5-[4-methyl-5-[4-(trifluoromethyl)-2-pyridyl]-1,2,4-triazol-3-yl]triazolo[4,5-b]pyridine]							
	CCS(=O)(=O)c1cc2ccccc2nc1-c1nnc(-c2cc(C(F)(F)F)ncn2)n1C [Compound A4, 3-ethylsulfonyl-2-[4-methyl-5-[6-(trifluoromethyl)pyrimidin-4-yl]-1,2,4-triazol-3-yl]quinoline]		≥ 80%	≥ 80%			≥ 80%	
	CCS(=O)(=O)c1cc2nnn(C)c2nc1-c1nnc(-c2cc(C(F)(F)F)ccn2)n1C [Compound A10, 6-ethylsulfonyl-3-methyl-5-[4-methyl-5-[4-(trifluoromethyl)-2-pyridyl]-1,2,4-triazol-3-yl]triazolo[4,5-b]pyridine]	≥ 80%	≥ 80%	≥ 80%		≥ 80%	≥ 80%	≥ 80%
	CCS(=O)(=O)c1cc2ccccc2nc1-c1nnc(-c2cc(C(F)(F)F)ccn2)n1C [Compound A3, 3-ethylsulfonyl-2-[4-methyl-5-[4-(trifluoromethyl)-2-pyridyl]-1,2,4-triazol-3-yl]quinoline]	≥ 80%	≥ 80%	≥ 80%		≥ 80%	≥ 80%	
	CCS(=O)(=O)c1cc2nn(COC)nc2nc1-c1nnc(-c2cc(C(F)(F)F)ccn2)n1C [Compound A17, 6-ethylsulfonyl-2-(methoxymethyl)-5-[4-methyl-5-[4-(trifluoromethyl)-2-pyridyl]-1,2,4-triazol-3-yl]triazolo[4,5-b]pyridine]	≥ 80%						
	CCS(=O)(=O)c1cc2c(nnn2CCF)nc1-c1nnc(-c2cc(C(F)(F)F)ccn2)n1C [Compound A14, 6-ethylsulfonyl-1-(2-fluoroethyl)-5-[4-methyl-5-[4-(trifluoromethyl)-2-pyridyl]-1,2,4-triazol-3-yl]triazolo[4,5-b]pyridine]	≥ 80%	≥ 80%	≥ 80%	≥ 80%			
198 to 200 °C	CCS(=O)(=O)c1cc2nnn(COC)c2nc1-c1nnc(-c2cc(C(F)(F)F)ccn2)n1C [Compound A16, 6-ethylsulfonyl-3-(methoxymethyl)-5-[4-methyl-5-[4-(trifluoromethyl)-2-pyridyl]-1,2,4-triazol-3-yl]triazolo[4,5-b]pyridine]							
	CCS(=O)(=O)c1cc2c(nc1-c1nnc(-c3cc(C(F)(F)F)ccn3)n1C)CC(C)(C)O2 [Compound A19, 6-ethylsulfonyl-2,2-dimethyl-5-[4-methyl-5-[4-(trifluoromethyl)-2-pyridyl]-1,2,4-triazol-3-yl]-3H-furo[3,2-b]pyridine]		≥ 80%			≥ 80%		
	CCS(=O)(=O)c1cc2c(cc1-c1nnc(-c3ccc(C(F)(F)F)nc3)n1C)nc(C(F)(F)F)n2C [Compound A5, 6-ethylsulfonyl-1-methyl-5-[4-methyl-5-[6-(trifluoromethyl)-3-pyridyl]-1,2,4-triazol-3-yl]-2-(trifluoromethyl)benzimidazole]	≥ 80%		≥ 80%	≥ 80%	≥ 80%		
303 to 305 °C	CCS(=O)(=O)c1cc2[nH]nnc2nc1-c1nnc(-c2cc(C(F)(F)F)ccn2)n1C [Compound A12, 6-ethylsulfonyl-5-[4-methyl-5-[4-(trifluoromethyl)-2-pyridyl]-1,2,4-triazol-3-yl]-1H-triazolo[4,5-b]pyridine]							
